Experimental data published in ChEMBL document CHEMBL1201862, “PubChem BioAssay data set” (2004).
Calls of active or inactive are those of the source.

Assays:
[1] = viability of PTEN-deleted HCT116 cells – cell-based, HCT116 PTEN knockout, dose response (AID 1047); type: functional;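 note: HCT116 colon tumor cells with PTEN knocked out; cells exposed to compound for 60 hours before readout; potency for loss of cell viability measured by luminescence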
[2] = viability of HCT116 lacking mutant beta-catenin – cell-based, human colon tumor, dose response (AID 1045); type: functional;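 note: HCT116 colon tumor cells with beta catenin knocked out; cells exposed to compound for 60 hours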
Genome polyprotein = Genome polyprotein (dengue virus type 2, UniProt P29990); assay: flavivirus cap methylation enzyme inhibition – biochemical, confirmation dose response, primary screen (AID 588689); type: functional
[3] = Trypanosoma cruzi growth suppression in host cells – NIH3T3 host cells, beta-gal luminescence, confirmation (AID 2044); type: functional, cell-based;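 note: intracellular parasites grown in NIH/3T3 mouse fibroblasts as host cells; luminescent beta-galactosidase reporter signal from transgenic T. cruzi replicating inside host cells; inhibitors lower the luminescence signal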
[4] = NIH3T3 cell viability loss – ATP luminescence, mouse fibroblasts, counter-screen, dose response (AID 2010); type: functional, cell-based;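 note: cells exposed to compound for about 90 hours before reading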
Cytochrome P450 2C19 = Cytochrome P450 2C19 (Homo sapiens, UniProt P33261); assay: Cytochrome panel assay with activity outcomes. Panel member name: p450-cyp2c19 Compounds with AC50 equal or less than 10 uM are considered active; type: functional; details: read-out: AC50
INS1 = assay: INS-1E survival protection against cytokine death – cell-based, luminescence, retest, dose response (AID 449756); type: functional; details: Rattus norvegicus;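 note: cell death triggered by IL-1 beta plus TNF-alpha plus IFN-gamma mixture; protective hits raise ATP signal compared with cytokine alone wells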
Vero = assay: cells; type: functional, Chlorocebus sabaeus; details: Chlorocebus sabaeus, Vero
[5] = HIV-1 AD8 envelope cell-cell fusion blockers – cherry-pick, dose response (AID 652062); type: functional, cell-based;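 note: luciferase signal from cell-cell fusion driven by HIV-1 clade B AD8 Env; potency is for inhibitors of fusion seen as a drop in luminescence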
[6] = biological target: T1, RNA-binding protein pos-1 (Caenorhabditis elegans, UniProt G5EF15); assay: disruptors of C. elegans POS-1 RNA interaction – biochemical, fluorescence polarization, dose response (AID 1964);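 note: purified POS-1 fused to maltose binding protein made in E. coli; potency of compounds blocking POS-1 binding to fluorescent RNA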
T1 sequence (G5EF15 whole entry): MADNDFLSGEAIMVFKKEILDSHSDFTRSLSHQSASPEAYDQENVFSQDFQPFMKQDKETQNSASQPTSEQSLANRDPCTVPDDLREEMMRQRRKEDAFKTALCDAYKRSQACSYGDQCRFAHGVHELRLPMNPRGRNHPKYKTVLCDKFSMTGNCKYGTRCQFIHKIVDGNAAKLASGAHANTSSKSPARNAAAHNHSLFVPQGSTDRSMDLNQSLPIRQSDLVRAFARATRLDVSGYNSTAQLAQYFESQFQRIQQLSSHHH

[7] = Luminescence Cell-Based Dose Confirmation HTS to Identify Activators of 5'UTR Stem-Loop Driven Alpha-Synuclein mRNA Translation in H4 Neuroglioblastoma Cells. [Related pubchem assays: 1829 (Project Summary), 1814 (Primary HTS)]; type: functional
[8] = Luminescence Cell-Based Dose Response HTS to Identify Activators of Luciferase Translation or Activity in H4 […] Cells. [Related pubchem assays: 1829 (Project Summary), 1814 (Primary HTS)]; type: functional
H4 = assay: Luminescence Cell-Based Dose Response HTS to Identify Activators of 5'UTR Stem-Loop Driven Prion Protein mRNA Translation in H4 Neuroglioblastoma Cells. [Related pubchem assays: 1829 (Project Summary), 1814 (Primary HTS)]; type: functional; details: Homo sapiens
[9] = biological target: T2, Zinc finger protein mex-5 (Caenorhabditis elegans, UniProt Q9XUB2); assay: potency of MEX-5 RNA-binding blockers – biochemical, C. elegans, fluorescence polarization, dose response (AID 1960)
T2 sequence (Q9XUB2 whole entry): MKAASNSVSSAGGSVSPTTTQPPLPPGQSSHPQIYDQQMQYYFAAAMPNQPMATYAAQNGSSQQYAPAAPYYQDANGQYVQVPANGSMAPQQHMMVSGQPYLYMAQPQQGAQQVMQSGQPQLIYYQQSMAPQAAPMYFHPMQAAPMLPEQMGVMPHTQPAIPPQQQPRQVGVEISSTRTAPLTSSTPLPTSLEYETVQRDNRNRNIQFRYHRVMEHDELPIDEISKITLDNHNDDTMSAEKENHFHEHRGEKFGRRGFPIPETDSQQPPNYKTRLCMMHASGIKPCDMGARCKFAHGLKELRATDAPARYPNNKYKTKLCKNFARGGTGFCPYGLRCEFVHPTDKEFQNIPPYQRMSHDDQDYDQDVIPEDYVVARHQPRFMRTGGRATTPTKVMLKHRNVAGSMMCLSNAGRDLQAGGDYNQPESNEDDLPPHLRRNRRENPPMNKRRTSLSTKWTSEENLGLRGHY

Genome polyprotein, sequence (P29990 2492-3391 limits assumed): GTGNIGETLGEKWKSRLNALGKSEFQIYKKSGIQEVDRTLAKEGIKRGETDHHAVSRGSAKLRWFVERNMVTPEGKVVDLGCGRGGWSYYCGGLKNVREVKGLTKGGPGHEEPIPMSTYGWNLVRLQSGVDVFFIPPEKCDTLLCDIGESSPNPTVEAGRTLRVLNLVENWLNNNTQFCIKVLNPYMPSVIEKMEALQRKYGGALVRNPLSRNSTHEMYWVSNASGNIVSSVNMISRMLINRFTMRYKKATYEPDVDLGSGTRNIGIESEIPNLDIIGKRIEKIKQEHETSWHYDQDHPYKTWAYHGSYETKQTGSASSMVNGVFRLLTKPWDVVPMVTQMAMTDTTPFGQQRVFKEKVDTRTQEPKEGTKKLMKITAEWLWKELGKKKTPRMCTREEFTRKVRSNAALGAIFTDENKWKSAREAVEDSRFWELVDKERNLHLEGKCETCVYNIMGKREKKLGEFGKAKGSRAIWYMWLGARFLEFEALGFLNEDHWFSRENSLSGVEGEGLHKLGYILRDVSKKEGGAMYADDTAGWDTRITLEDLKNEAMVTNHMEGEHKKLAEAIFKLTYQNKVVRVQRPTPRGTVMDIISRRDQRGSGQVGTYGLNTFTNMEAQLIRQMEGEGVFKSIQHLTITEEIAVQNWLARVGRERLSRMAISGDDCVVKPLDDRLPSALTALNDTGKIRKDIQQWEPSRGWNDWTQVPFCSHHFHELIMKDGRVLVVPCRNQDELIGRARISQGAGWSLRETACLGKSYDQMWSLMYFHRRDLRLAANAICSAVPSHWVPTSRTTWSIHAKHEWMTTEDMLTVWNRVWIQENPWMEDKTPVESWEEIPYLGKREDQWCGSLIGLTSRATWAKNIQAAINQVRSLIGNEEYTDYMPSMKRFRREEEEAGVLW
Cytochrome P450 2C19, sequence (P33261 whole entry): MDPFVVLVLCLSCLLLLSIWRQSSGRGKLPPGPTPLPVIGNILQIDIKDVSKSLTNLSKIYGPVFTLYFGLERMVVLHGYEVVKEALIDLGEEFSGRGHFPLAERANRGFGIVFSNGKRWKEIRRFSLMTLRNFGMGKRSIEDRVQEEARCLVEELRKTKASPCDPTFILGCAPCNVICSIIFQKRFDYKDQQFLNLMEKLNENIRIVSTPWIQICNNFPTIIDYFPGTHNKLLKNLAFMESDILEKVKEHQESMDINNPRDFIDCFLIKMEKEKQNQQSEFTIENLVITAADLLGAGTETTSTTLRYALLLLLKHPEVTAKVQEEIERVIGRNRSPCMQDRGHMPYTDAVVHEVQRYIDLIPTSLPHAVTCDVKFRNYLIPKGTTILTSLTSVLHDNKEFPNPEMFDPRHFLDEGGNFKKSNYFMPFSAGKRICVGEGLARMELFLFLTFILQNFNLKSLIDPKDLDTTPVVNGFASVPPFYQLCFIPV

With O=C1c2cccc3c([N+](=O)[O-])ccc(c23)C(=O)N1c1nccs1 the EC50 [1] was 21.6 µM (active) and the EC50 [2] was 11.9 µM (active).
In the case of O=C1CNC(=O)/C1=C/c1ccc(Br)cc1, the IC50 (Genome polyprotein) is reported as > 100 µM (active).
For COc1cccc(/C=C2\SC(=S)N(C(C(=O)O)c3ccccc3)C2=O)c1OC (stereo not given), the IC50 (Genome polyprotein) was 49.7 µM (active).
In the case of Cc1ccc(NCc2nnc(SCC(=O)Nc3ncc(C)s3)n2Cc2ccco2)c(C)c1, the EC50 [1] is reported as 23.3 µM (active) and the EC50 [2] is reported as 23.8 µM (active).
For O=c1c2ccccc2nc(CSc2[nH]cnc3ncnc2-3)n1-c1ccccc1, the EC50 [1] was 14.9 µM (active) and the EC50 [2] was 28.9 µM (active).
In the case of COc1ccc(CNCCC(c2ccc(OC(C)C)cc2)C(C)C)cc1OC (stereo not given), the EC50 [3] is reported as 0.416 µM (active), the EC50 [1] is reported as 13 µM (active) and the EC50 [4] is reported as 9.8 µM (active). The EC50 [2] was 10.7 µM (active), the AC50 (Cytochrome P450 2C19) was 10 µM (inconclusive) and the AC50 (INS1) was 12.7 µM (active).
In the case of O=C(CCN1C(=O)C2C3C=CC(C4CC34)C2C1=O)Oc1cccc2cccnc12 (stereo not given), the EC50 [1] is reported as 18.8 µM (active) and the EC50 [2] is reported as 16.7 µM (active).
In the case of Nc1c(C(=O)NCc2ccc(F)cc2)c2nc3ccccc3nc2n1CCCN1CCOCC1, the EC50 [1] is reported as 21.5 µM (active) and the EC50 [2] is reported as 18.9 µM (active).
In the case of Cc1noc(/C=C/c2cccnc2)c1[N+](=O)[O-], the EC50 [3] is reported as 2.34 µM (active), the EC50 [4] is reported as 18.4 µM (active) and the CC50 (Vero) is reported as 17.3 µM (active).
In the case of CCn1nccc1C(=O)Nc1ccc(S(=O)(=O)NC23CC4CC(CC(C4)C2)C3)cc1, the EC50 [1] is reported as 24.3 µM (active) and the EC50 [2] is reported as 27.9 µM (active).
For O=C(Nc1ccc(F)cc1)c1nc[nH]c1C(=O)Nc1ccccc1[N+](=O)[O-], the EC50 [1] was 3.08 µM (active) and the EC50 [2] was 4.18 µM (active).
For CCc1ccc(Nc2ccc(C(=O)O)cc2[N+](=O)[O-])cc1, the IC50 (Genome polyprotein) was > 100 µM (active).
For O=C(Nc1cccn(Cc2c(Cl)cccc2Cl)c1=O)c1ccc(Cl)cc1, the AC50 [5] was 8.74 µM (active).
For Cc1n[nH]c(C)c1S(=O)(=O)N1CCCC(C(=O)Nc2ccc(Br)cc2)C1 (stereo not given), the EC50 [6] was > 300 µM (not active), the EC50 [7] was > 120 µM (not active) and the EC50 [8] was > 120 µM (not active). For the same compound, the EC50 (H4) was > 120 µM (not active) and the EC50 [9] was > 300 µM (not active).
In the case of COC1C=COC2(C)Oc3c(C)c(O)c4c(O)c(c(CN5CCN(C)CC5)c(O)c4c3C2=O)NC(=O)C(C)=CC=CC(C)C(O)C(C)C(O)C(C)C(OC(C)=O)C1C (stereo not given), the IC50 (Genome polyprotein) is reported as 96.6 µM (active).
With CN1CCN(C(=O)CCN2C(=O)/C(=C\c3ccc(Cl)cc3)SC2=S)CC1 the CC50 (Vero) was 15.8 µM (active).
In the case of O=C1NC(=O)C(=Cc2c(Cl)cccc2Cl)C(=O)N1, the IC50 (Genome polyprotein) is reported as 43.4 µM (active).
For O=C(C[C@H]1C[C@H]2c3cc(NC(=O)C4CCC4)ccc3O[C@H]2[C@H](CO)O1)NCc1ccc2c(c1)OCO2, the AC50 [5] was 4.08 µM (active).
In the case of CCN1CCN(c2cc(C)c3cc(NC(=O)c4cccc(OC)c4)ccc3n2)CC1, the EC50 [7] is reported as 13.5 µM (active), the EC50 [8] is reported as 16 µM (active) and the EC50 (H4) is reported as 17.9 µM (active). For the same compound, the CC50 (Vero) was > 25 µM (active).
